# Measured values from US6429204B1, “Method of inhibiting cancer growth” (University of Miami, priority 1997, dated 2002).
# Where two headings read alike, the source gives them in different places.
# Experiments:
# E-10 Cells [1] = assay: MTS cytotoxicity assay, E-10; conditions: two days
# Description: (§2) A panel of chemically modified tetracycline compounds and doxycycline were tested for cytotoxicity against two carcinomas: COLO 205 (a human colon carcinoma-derived cell line) and the E-10 clone of MDA-MB-231 (a human breast carcinoma-derived cell line). Cytoxicity was measured using a conventional assay for viability with a tetrazolium salt (MTS). Cells were grown in media containing the CMTs at concentrations ranging from 5 μM to 100 μM for two days. The cells were then incubated with the MTS for several hours before removal of the supernatant medium for determination of formazan, which is generated only by the viable cells. Results are expressed as percent cytotoxicity, which is simply the percent decline in measured formazan concentration in the sampled medium.
# COLO 205 Cells [2] = assay: MTS cytotoxicity assay, COLO 205; conditions: two days
# C8161 cells [3] = assay: C8161 cell proliferation (doubling time); type: cell-based, human; conditions: 50 μg/mL; for Doubling Time: on plastic, DMSO 22 hr; for increase of doubling time: versus DMSO
# Description: Cell Culture and Maintenance: C8161 cells, a human melanoma cell line, were maintained in Dulbecco's modified Eagle's medium (DMEM; […] These cells were routinely screened for Mycoplasma contamination using the GenProbe Rapid Detection System (Fisher Scientific; Chicago, Ill.). Chemically Modified Tetracyclines: Fresh stock solutions of the chemically modified tetracycline compounds (2 mg/mL) were prepared for each experiment by hydrating in 2% dimethyl sulfoxide (DMSO)/water pH 10, then adjusting to pH 7.4 using 1.0 M HCl. […] Sigma Chem. Co.; control) or 50 μg/mL of doxycycline or the other CMTs (three wells on each plate per compound). […] The doubling time for C8161 cells in the presence of each compound was then determined and compared to the DMSO treated cells (control).
# Gelatinase A = biological target: T1, Gelatinase A (Homo sapiens, UniProt P08253); assay: Zymography with densitometry of C8161 conditioned medium, gelatinase A; type: cell-based; conditions: 50 μg/mL, 24 hr
# T1 construct: endogenous in cells; host or cells: C8161
# T1 sequence (P08253 110-660): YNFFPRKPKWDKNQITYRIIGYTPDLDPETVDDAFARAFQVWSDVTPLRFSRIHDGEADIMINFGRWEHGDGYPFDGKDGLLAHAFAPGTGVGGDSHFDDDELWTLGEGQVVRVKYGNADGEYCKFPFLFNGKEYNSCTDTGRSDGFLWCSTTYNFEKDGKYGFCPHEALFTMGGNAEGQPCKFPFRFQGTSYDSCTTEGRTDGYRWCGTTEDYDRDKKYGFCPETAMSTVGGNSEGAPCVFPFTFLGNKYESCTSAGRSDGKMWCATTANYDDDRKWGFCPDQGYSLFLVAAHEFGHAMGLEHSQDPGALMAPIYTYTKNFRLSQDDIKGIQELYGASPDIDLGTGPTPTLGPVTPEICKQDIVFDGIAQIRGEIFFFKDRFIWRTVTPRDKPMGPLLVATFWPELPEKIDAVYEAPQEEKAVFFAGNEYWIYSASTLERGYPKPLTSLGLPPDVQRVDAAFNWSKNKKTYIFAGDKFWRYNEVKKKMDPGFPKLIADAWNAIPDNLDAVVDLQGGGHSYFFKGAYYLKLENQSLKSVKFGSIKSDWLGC
# Description: (§1) Six hundred thousand (6×10^5) C8161 cells were seeded per well in a 12-well dish coated with a laminin/collagen IV/gelatin matrix in DMEM plus Mito+ and 0.1% gentamicin sulfate. After approximately 1 hr incubation to allow the cells to attach, 50 μg/mL of either doxycycline or one of the other CMTs was added per well and the dish then placed in a 37° C. humidified 5% CO2 incubator. After 24 hr, the supernatants were removed and centrifuged to remove any cells or debris. One volume of Laemmli sample buffer minus reductant was added to two volumes of the medium, and this sample electrophoresed without prior heating or boiling on a 10% SDS-PAGE containing 0.1% gelatin (samples normalized based on the same number of cells per volume of medium per time of incubation). After electrophoresis, the gels were washed with gentle shaking at room temperature for 30 min in 50 mM Tris-HCl (pH 7.5) plus 2.5% TRITON® X100 plus 50 μg/mL of the corresponding CMT used in the original treatment. The gel was then placed in incubation buffer (50 mM Tris-Cl/10 mM CaCl2/150 mM NaCl/0.05% NaN3) also containing 50 μg/mL of the corresponding CMT, and incubated at 37° C. for 20-24 hr. The gels were stained with Coomassie BBR-250, then destained with 10% methanol/10% acetic acid in water until the wash remained clear. A photographic negative of the gel was digitized using a video camera and Snappy Video Snapshot system (Play Inc., Rancho Cordova, Calif.). An integrated density was determined for each of the cleared zones of proteolysis using the software ImagePC8α (freely available from the National Institutes of Health), and the corresponding changes in gelatinolytic activities reported compared to the control samples normalized to a value of 1.0.
# Gelatinase B = biological target: T2, Gelatinase B (Homo sapiens, UniProt P14780); assay: Zymography with densitometry of C8161 conditioned medium, gelatinase B; type: cell-based; conditions: 50 μg/mL, 24 hr
# T2 construct: endogenous in cells; host or cells: C8161
# Description: as §1
# [4] = system: C8161 human melanoma cells; assay: In vitro invasion assay (MICS), laminin/collagen IV/gelatin matrix-coated filter; type: cell-based; conditions: 3, 20 and 50 μg/mL; for Percent Inhibition of invasive potential: 48 hr
# Description: The in vitro invasive potentials of the control (DMSO only) and chemically-modified tetracycline treated cells were measured using a modified Boyden chamber as previously described (Membrane Invasion Culture System, MICS). An intervening barrier consisting of a polycarbonate filter containing 10 μm pores (Osmonics, Livermore, Calif.) coated with a defined matrix of human laminin/collagen IV/gelatin (Sigma, St. Louis, Mo.) was used for these studies. […] Doxycycline or individual CMTs were then added to different wells of the chamber at 3, 20 or 50 μg/mL 2 hr post-seeding and daily during the assay. After 48 hr, the cells were removed from the lower wells and the number of invasive cells was determined and compared to the original number of cells seeded into the upper wells. Where appropriate, data were corrected for proliferation during the period of the in vitro assay.
# C8161 cells [5] = assay: In vivo metastasis assay, C8161 cells i.v. in SCID mice; conditions: for Number of Lung Metastases/Mouse: Average ± SEM, control 231 ± 49
# Description: Immunosuppressed mice (athymic nude/nude SCID females from Harlan Sprague Dawley) were housed in autoclaved cages with microisolator tops, and all manipulations of the animals were done in a laminar flow hood after wiping down both the hood, gloves and cages with ABQ sterilant. The mice were fed sterile Pico Lab Chow (Purina) and autoclaved St. Louis tap water. […] The compounds and control (sterile water plus 2% carboxymethyl cellulose) were kept stored at −80° C. wrapped in aluminum foil to prevent any light induced changes, and each day's supply was thawed just prior to use. Four compounds were tested for their effects on the metastatic potential of C8161 cells injected intravenously via the tail vein: […] The concentration of the compounds in the vials used to give the 100 mg/kg doses were 2.5 times that in the 40 mg/kg dose so that approximately the same volume was used in both cases, approximately 0.5 mL/animal. The experiments started with nine animals per group at day −4. On day zero, 2×10^5 C8161 cells in cold Hank's Balanced Salt Solution (HBSS) were injected intravenously via tail vein inoculation. The experiment was continued for an additional 24 days, at which time the animals were sacrificed and their lungs removed and fixed in a solution of Bouins/formaldehyde (5 parts:1 part). Tumors were quantitated on the entire surface of the lungs by rotating the lungs and counting the tumors on each lobe using a 6× magnifying glass. Statistical analysis was performed using the statistical package of Microsoft's Excel spreadsheet software.
# [6] = system: DU-145 and TSU-PR1 prostate cancer cell lines; assay: Prostate cancer cell viability/proliferation (trypan blue, MTT); type: cell-based, human
# Excerpt: To determine the cytotoxicity of CMTs on prostate tumor cell lines, TSU-PR1 cells (and cells of other tumor cell lines) were exposed to various CMTs or to doxycycline for 24 hr or 48 hr in a complete medium. Cell viability (percent of live cells) was estimated by counting the cells following trypan blue staining. Cellular viability was also estimated by the tetrazolium dye reduction assay (MTT assay) (Lokeshwar et al. 1995b). Due to the aggressive proliferative capacity of cancer cells, it is assumed that viable cells are actively proliferating. Therefore, the measurement of viability was used as an estimate of proliferation. Results are expressed as Mean±SEM from three separate experiments.
# E-10 Cells [7] = system: E-10 Cells
# Description: as §2
# COLO 205 Cells [8] = system: COLO 205 Cells
# T2 sequence (P14780 94-707): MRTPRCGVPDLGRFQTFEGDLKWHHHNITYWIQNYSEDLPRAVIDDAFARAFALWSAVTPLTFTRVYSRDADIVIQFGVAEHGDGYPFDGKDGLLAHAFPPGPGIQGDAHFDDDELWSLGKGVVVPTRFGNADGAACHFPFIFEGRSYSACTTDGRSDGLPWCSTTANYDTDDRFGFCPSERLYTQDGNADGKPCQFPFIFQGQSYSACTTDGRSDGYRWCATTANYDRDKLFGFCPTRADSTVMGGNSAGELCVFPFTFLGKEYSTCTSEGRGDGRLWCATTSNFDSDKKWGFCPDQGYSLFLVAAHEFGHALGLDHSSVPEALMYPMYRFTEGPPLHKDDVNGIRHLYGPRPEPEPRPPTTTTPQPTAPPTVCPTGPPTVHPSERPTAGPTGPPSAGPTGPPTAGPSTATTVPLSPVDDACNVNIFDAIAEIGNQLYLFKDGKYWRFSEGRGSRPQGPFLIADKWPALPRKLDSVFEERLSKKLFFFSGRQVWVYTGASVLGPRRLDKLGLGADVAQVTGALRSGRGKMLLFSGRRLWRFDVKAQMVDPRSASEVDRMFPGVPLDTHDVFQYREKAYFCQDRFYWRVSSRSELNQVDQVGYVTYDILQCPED
Compound,percent cytotoxicity (E-10 Cells [1]; 5 μM) [%],percent cytotoxicity (E-10 Cells [1]; 10 μM) [%],percent cytotoxicity (E-10 Cells [1]; 20 μM) [%],percent cytotoxicity (E-10 Cells [1]; 50 μM) [%],percent cytotoxicity (E-10 Cells [1]; 100 μM) [%],percent cytotoxicity (COLO 205 Cells [2]; 5 μM) [%],percent cytotoxicity (COLO 205 Cells [2]; 10 μM) [%],percent cytotoxicity (COLO 205 Cells [2]; 20 μM) [%],percent cytotoxicity (COLO 205 Cells [2]; 50 μM) [%],percent cytotoxicity (COLO 205 Cells [2]; 100 μM) [%],Doubling Time (C8161 cells [3]) [h],increase of doubling time (C8161 cells [3]),"Gelatinase A, integrated density normalized to control 1.00 (Gelatinase A)","Gelatinase B, integrated density normalized to control 1.00 (Gelatinase B)",Type of Inhibition [4],Percent Inhibition of invasive potential [4],Number of Lung Metastases/Mouse (C8161 cells [5]; 40 mg/kg daily intragastric),further results
"C[C@H]1c2cccc(O)c2C(O)=C2C(=O)[C@]3(O)C(O)=C(C(N)=O)C(=O)C[C@@H]3[C@@H](O)[C@@H]21 [CMT-8, 6α-deoxy-5-hydroxy-4-de(dimethylamino)tetracycline]",0,0,0,0,0,0,20.5,35.5,44.4,50,26,approximately 18%,0.70,1.05,non-dose,˜12%,186 ± 60,"effect on number of lung metastases (significance) (C8161 cells [5]; at either dosage, p>0.05): did not significantly reduce the number of lung metastases"
tetracycline pyrazole [CMT-5],–,–,–,–,–,–,–,–,–,–,–,–,–,–,–,–,–,inhibition of cell proliferation [6]: not inhibitory
"CC1(O)c2c(Cl)ccc(O)c2C(=O)C2=C(O)C3(O)C(=O)C(C(N)=O)=C(O)CC3CC21 (stereo not shown) [CMT-4, 4-de(dimethylamino)-7-chlorotetracycline]",–,–,–,–,–,–,–,–,–,–,22,did not affect the doubling time,0.75,0.12,non-dose,˜20%,–,percent cytotoxicity (E-10 Cells [7]; 5 µM): 9%; percent cytotoxicity (E-10 Cells [7]; 10 µM): 16.7%; percent cytotoxicity (E-10 Cells [7]; 20 μM): 0.8%; percent cytotoxicity (E-10 Cells [7]; 50 µM): 0%; percent cytotoxicity (E-10 Cells [7]; 100 µM): 0%; percent cytotoxicity (COLO 205 Cells [8]; 5 µM): 1.8%; percent cytotoxicity (COLO 205 Cells [8]; 10 µM): 6.8%; percent cytotoxicity (COLO 205 Cells [8]; 20 μM): 25.3%; percent cytotoxicity (COLO 205 Cells [8]; 50 µM): 73.3%; percent cytotoxicity (COLO 205 Cells [8]; 100 µM): 81.9%
"CC1(O)c2cccc(O)c2C(=O)C2=C(O)C3(O)C(=O)C(C(N)=O)=C(O)CC3CC21 (stereo not shown) [CMT-1, 4-de(dimethylamino)tetracycline]",7.6,0,0,2.2,7.6,0,4,32.5,63.8,82.8,24,approximately 9%,0.24,0.22,dose-dependent,26-58%,129 ± 102,"effect on number of lung metastases (significance) (C8161 cells [5]; 40 mg/kg daily, p<0.05): significantly reduced the number of lung metastases; effect on number of lung metastases (significance) (C8161 cells [5]; 100 mg/kg): did not significantly reduce the number of lung metastases; Number of Lung Metastases/Mouse (C8161 cells [5]; 100 mg/kg daily intragastric): 240 ± 28"
